Assay results from patent US9034655B2, “Highly water-soluble, cationic luminescent labels” (SETA BioMedicals, LLC, priority 2006, dated 2015).

What was measured:
[1] = Fluorescence (luminescent) lifetime of dyes and conjugates; format: physicochemical; conditions: for luminescent lifetime (τ): solvent not stated
Text: Typical assays based on the measurement of the fluorescence lifetime as a parameter include for example FRET (fluorescence resonance energy transfer) assays. The binding between a fluorescent donor labeled species (typically an antigen, or a ligand) and a fluorescent acceptor labeled species may be accompanied by a change in the intensity and/or the fluorescence lifetime. The lifetime can be measured using intensity-(Time corrlated single photon counting TCSPC) or phase-modulation-based methods (J. R. LAKOWICZ, PRINCIPLES OF FLUORESCENCE SPECTROSCOPY (2nd Ed. 1999)).

[2] = Fluorescence quantum yield (QY); format: physicochemical
[3] = Absorption and emission maxima (spectral properties); format: physicochemical
Text: The synthesis of representative dyes is provided in the Examples Section. The structures, absorption and emission data as well as the luminescent lifetime in different solvents of specific dyes are given in Table 1.

[4] = cited from earlier work

Compound	λ(abs) [nm] ([3]; Ethanol)	λ(fl) [nm] ([3]; Ethanol)	λ(abs) [nm] ([3]; Water)	λ(fl) [nm] ([3]; Water)	Lifetime [ns] ([1]; Ethanol (Table 1))	Lifetime [ns] ([1]; Water (Table 1))	(QY [%]) ([2]; Water (Table 1))	(QY [%]) ([2]; Ethanol (Table 1))	also measured
CN(C)c1ccc2c3c(cccc13)C(=O)N(c1ccccc1)C2=O [Dye 1, phenylimide of 4-dimethyl aminonaphthalic acid]	–	–	–	–	–	–	–	–	Lifetime [ns] ([1]; Ethanol): <<1 ns; lifetime in ethanol ([1]; Ethanol): < 1 ns; lifetime in water compared with ethanol ([1]; Water): even further reduced; (QY [%]) ([2]; Ethanol): 0.5%; Q.Y. in water compared with ethanol ([2]; Water): even further reduced
CCOC(=O)c1c(C)nn2c(=O)c3cccc4c5c(cc(c43)c12)C[N+](C)(C)CN5C.[Cl-] [Dye 8]	436 nm	584 nm	449 nm	600 nm	7.8 ns	5.7 ns	7%	44%	λ(abs) [nm] ([3]; Water + BSA): 449 nm; λ(fl) [nm] ([3]; Water + BSA): 600 nm; Lifetime [ns] ([1]; Water + BSA): 6.1 ns
fluorescein-isothiocyanate [FITC]	–	–	–	–	–	–	–	–	lifetime losses when covalently labeled to proteins ([4]; D/P ~ 8, Lakowicz et al. 2004): ~40%; lifetime τ ([4]; free label): 4.0 ns
CN1C[N+](C)(C)Cc2c1ccc1cc3ccccc3cc21 [Dye 13, 2,2,4-trimethyl-1,2,3,4-tetrahydronaphtho[2,3-f]quinazolin-2-ium hexafluorophosphate]	395 nm	462 nm	398 nm	481 nm	–	20.9 ns	40%	30%	lifetime in water ([1]; Water): 20 ns
CN1C[N+](C)(C)Cc2cc3c4c(cccc4c21)C(=O)N(c1ccc(C(=O)O)cc1)C3=O.[Cl-] [Dye 3, 5-(4-carboxyphenyl)-9,9,11-trimethyl-4,6-dioxo-5,6,8,9,10,11-hexahydro-4H-isoquino[4,5-g,h]quinazolin-9-ium chloride]	–	–	–	–	–	–	–	–	lifetime in water ([1]; Water): 9.3 ns; overall decrease in fluorescence lifetime ([1]; free dye in water vs IgG conjugate at D/P about 8): 10%; lifetime labeled to IgG ([1]; labeled to IgG at a D/P ratio of about 1): 8.9 ns; lifetime labeled to IgG ([1]; labeled to IgG, D/P ratio of about 8): 8.4 ns
CN1C[N+](C)(C)Cc2cc3c4c(cccc4c21)C(=O)N(c1ccc(C(=O)ON2C(=O)CCC2=O)cc1)C3=O [Dye 3-NHS]	390 nm	500 nm	404 nm	518 nm	8.0 ns	9.3 ns	–	–	–
CN1C[N+](C)(C)Cc2c1cc1c3c(cccc23)C(=O)N(CCCCCC(=O)O)C1=O [Dye 4a]	–	–	–	–	–	–	–	–	luminescent lifetime (τ) [1]: 26 ns
CN1C[N+](C)(C)Cc2c1cc1c3c(cccc23)C(=O)N(c2ccccc2)C1=O [Dye 6, 8,10,10-trimethyl-4,6-dioxo-5-phenyl-5,6,8,9,10,11-hexahydro-4H-isoquino[5,4-fg]quinazolin-10-ium hexafluorophosphate]	414 nm	513 nm	426 nm	545 nm	23.3 ns	22.9 ns	–	51%	luminescent lifetime (τ) [1]: around 23 ns

Further lines, with some results ahead:

λ(abs) [nm] ([3]; Ethanol)	λ(fl) [nm] ([3]; Ethanol)	λ(abs) [nm] ([3]; Water)	λ(fl) [nm] ([3]; Water)	Lifetime [ns] ([1]; Ethanol (Table 1))	Lifetime [ns] ([1]; Water (Table 1))	(QY [%]) ([2]; Water (Table 1))	Compound	(QY [%]) ([2]; Ethanol (Table 1))	also measured
393 nm	498 nm	405 nm	515 nm	8.5 ns	9.4 ns	72%	CN1C[N+](C)(C)Cc2cc3c4c(cccc4c21)C(=O)N(c1ccccc1)C3=O.[Cl-] [Dye 5, 9,9,11-trimethyl-4,6-dioxo-5-phenyl-5,6,8,9,10,11-hexahydro-4H-isoquino[4,5-g,h]quinazolin-9-ium chloride]	58%	λ(abs) [nm] ([3]; DMF): 393 nm; λ(fl) [nm] ([3]; DMF): 500 nm; melting point: 235 °C; Lifetime [ns] ([1]; DMF): 9.0 ns; Lifetime [ns] ([1]; Ethanol): 8.5 ns; Lifetime [ns] ([1]; Water): 9.4 ns; (QY [%]) ([2]; Ethanol): 58%; (QY [%]) ([2]; Water): 75%
–	–	405 nm	515 nm	–	9.4 ns	72%	CN1C[N+](C)(C)Cc2cc3c4c(cccc4c21)C(=O)N(c1ccc(C(=O)O)cc1)C3=O.[Cl-] [Dye 3a]	–	–
